Test results as given in EPA's ToxRefDB 2.

Key:
[1] = system: mouse; settings: Carcinogenicity; b6c3f1; Oral; Feed; dose end: 2 year; group: systemic; systemic / in life observation / body weight / body weight
[2] = system: rat; settings: Carcinogenicity; fischer; Oral; Feed; dose end: 2 year; group: systemic; systemic / in life observation / body weight / body weight + systemic / pathology microscopic / kidney / hemosiderosis + systemic / …
[3] = system: rat; settings: Developmental neurotoxicity study; wistar; Injection; Subcutaneous; dose end: 68 PND; group: cannot be grouped; developmental / offspring survival late / [other] / [other] + systemic / hematology / leukocyte (wbc) count differential / leukocyte (wbc…
[4] = system: rat; settings: Developmental neurotoxicity study; wistar; Oral; Water; dose end: 60 PND; group: cannot be grouped; systemic / in life observation / body weight / offspring (pup) weight
[5] = system: mouse; settings: Developmental neurotoxicity study; other; Oral; [Not Specified]; dose end: 90 PND; group: cannot be grouped; systemic / in life observation / body weight / offspring (pup) weight gain + systemic / in life observation / clinical signs / convulsions
[6] = system: rat; settings: Developmental neurotoxicity study; wistar; Injection; Subcutaneous; dose end: 42 PND; group: cannot be grouped; developmental / developmental malformation / general / crown-rump length + developmental / offspring survival late / [other] / [other] + …
[7] = system: mouse; settings: Multigenerational reproductive toxicity study; cd1; Oral; Feed; dose end: 2 generation; group: offspring; systemic / in life observation / body weight / offspring (pup) weight
[8] = system: rat; settings: Subchronic oral toxicity in rodents, fischer, Feed, dose end: 90 day
[9] = system: mouse; settings: Subchronic oral toxicity in rodents, b6c3f1, Feed, dose end: 90 day
[10] = system: rat; settings: Carcinogenicity; sprague dawley; Oral; Feed; dose end: 104 week; group: systemic; systemic / clinical chemistry / glucose / glucose + systemic / in life observation / body weight / body weight gain + systemic / in life …
[11] = system: rat; settings: Chronic toxicity; sprague dawley; Oral; Feed; dose end: 78 week; group: systemic; systemic / clinical chemistry / glucose / glucose + systemic / in life observation / body weight / body weight gain + systemic / in life …
[12] = system: rabbit; settings: Prenatal developmental toxicity study; new zealand white; Oral; Gavage/Intubation; dose end: 19 GD; group: maternal; systemic / in life observation / body weight / body weight + systemic / in life observation / clinical signs / [other] + systemic / in life …
[13] = group: maternal, reproductive / reproductive performance / estrous cycle / length
[14] = group: systemic, systemic / organ weight / liver / relative to body weight
[15] = group: systemic, systemic / organ weight / liver / relative to body weight + systemic / clinical chemistry / bile acids / bile acids + systemic / in life …
[16] = group: systemic, systemic / clinical chemistry / 5' nucleotidase / 5' nucleotidase + systemic / clinical chemistry / alanine aminotransferase (alt/sgpt) / …
[17] = group: systemic, systemic / in life observation / body weight / body weight gain + systemic / organ weight / liver / relative to body weight

c1ccc(N=Nc2ccccc2)cc1 [Azobenzene]
LEL [1]: 30 mg/kg/day
LOAEL [1]: 81.8 mg/kg/day
NEL [1]: < 30 mg/kg/day
LEL [2]: 10 mg/kg/day
LOAEL [2]: > 20 mg/kg/day
NEL [2]: < 10 mg/kg/day
NOAEL [2]: ≥ 20 mg/kg/day

N[C@@H](CCC(=O)O)C(=O)[O-].[Na+] [Sodium l-glutamate]
LOAEL [3]: > 4000 mg/kg/day
NEL [3]: < 4000 mg/kg/day
NOAEL [3]: ≥ 4000 mg/kg/day
LEL [4]: 10000 mg/kg/day
NEL [4]: < 10000 mg/kg/day
NOAEL [4]: ≥ 10000 mg/kg/day
LEL [5]: 2.5 mg/kg/day
LOAEL [5]: > 4 mg/kg/day
NEL [5]: < 2.5 mg/kg/day
NOAEL [5]: ≥ 4 mg/kg/day
LEL [6]: 0.004 mg/kg/day
LOAEL [6]: > 0.004 mg/kg/day
NEL [6]: < 0.004 mg/kg/day
NOAEL [6]: ≥ 0.004 mg/kg/day

Cc1ccccc1O [o-Cresol]
LEL [7]: 624 mg/kg/day
LOAEL [7]: > 624 mg/kg/day
NOAEL [7]: ≥ 624 mg/kg/day
LEL [8, 13]: 129 mg/kg/day
LOAEL [8, 13]: > 2020 mg/kg/day
NEL [8, 13]: < 129 mg/kg/day
NOAEL [8, 13]: ≥ 2020 mg/kg/day
LEL [8, 14]: 510 mg/kg/day
LOAEL [8, 14]: 1020 mg/kg/day
NEL [8, 15]: 247 mg/kg/day
NOAEL [8, 15]: 510 mg/kg/day
LEL [9, 13]: 237 mg/kg/day
LOAEL [9, 13]: > 3200 mg/kg/day
NOAEL [9, 13]: ≥ 3200 mg/kg/day
LOAEL [9, 16]: > 3200 mg/kg/day
NOAEL [9, 16]: ≥ 3200 mg/kg/day
LEL [9, 17]: 199 mg/kg/day
NEL [9, 17]: < 199 mg/kg/day

OC[C@H]1O[C@H](O[C@]2(CCl)O[C@H](CCl)[C@@H](O)[C@@H]2O)[C@H](O)[C@@H](O)[C@H]1Cl [Sucralose]
LEL [10]: 150 mg/kg/day
NEL [10]: < 150 mg/kg/day
NOAEL [10]: ≥ 15000 mg/kg/day
LEL [11]: 150 mg/kg/day
LOAEL [11]: > 15000 mg/kg/day
NEL [11]: < 150 mg/kg/day
NOAEL [11]: ≥ 15000 mg/kg/day
LEL [12]: 700 mg/kg/day
LOAEL [12]: > 700 mg/kg/day
NEL [12]: 350 mg/kg/day
NOAEL [12]: ≥ 700 mg/kg/day
